The test system of one test is normal mice. Briefly: Single oral glucose tolerance test on normal mice. The test is classed as in vivo. Particulars: Mus musculus; for inhibition in vivo at 10 mg/kg: 0.5 h, read-out: Reduction rate of blood glucose level (%); for minimal effective dose: read-out: MED. As for the experimental part:
Test Method 3: Single Oral Glucose Tolerance Test on Normal Mice
The anti-hyperglycemic action after glycemic load of the compound to be inspected was examined using normal mice. Hereinafter, the test method will be described.
Male ICR mice which was preparedly reared for one week (6-week-old) was fasted overnight, and used as an animal to be inspected. A compound to be inspected was 0.5% methylcellulose suspension, and the suspension was orally administered 30 minutes before the glucose (2 g/kg) load. With regard to some compounds to be inspected, prior blood drawing was performed (0 min value), and blood glucose levels were measured at 5, 15, 30, 60 and 120 minutes later glucose load when the compound to be inspected was orally administered. A control group was given 0.5% methylcellulose. The evaluation was carried out in the following manner. (Evaluation 1) The reduction rate of blood glucose levels after glucose loading (%) with respect to the control group was calculated at a point of glucose load which is 30 minutes after the oral administration of 10 mg/kg of the compound to be inspected. […] Ex represents example compound numbers.
(Evaluation 2) The reduction rate of blood glucose levels after glucose loading (%) with respect to the control group was calculated at a point of glucose load which is 30 minutes after the oral administration of 10, 3, 1, 0.3 or 0.1 mg/kg of the compound to be inspected. […] Ex represents example compound numbers. In addition, MED describing “below” in Table 3 means that a test was not carried out due to less than dose described.
The area under the blood concentration-time curve (AUC) of blood glucose levels for 0 to 120 minute(s) was calculated from the blood glucose levels before the blood drawing, and the blood glucose levels at 5, 15, 30, 60, and 120 minutes after the glucose load when 30, 10, 3, 1 or 0.3 mg/kg of the compound to be inspected was orally administered.

For the next test, the target named is T1, human GPR40 (Homo sapiens, UniProt O14842, R211H).
T1 construct: expressed in transfected cells; host or cells: CHO dhfr- cells stably transfected with plasmid pEF-BOS-dhfr-GPR40
T1 sequence (O14842 whole entry R211H): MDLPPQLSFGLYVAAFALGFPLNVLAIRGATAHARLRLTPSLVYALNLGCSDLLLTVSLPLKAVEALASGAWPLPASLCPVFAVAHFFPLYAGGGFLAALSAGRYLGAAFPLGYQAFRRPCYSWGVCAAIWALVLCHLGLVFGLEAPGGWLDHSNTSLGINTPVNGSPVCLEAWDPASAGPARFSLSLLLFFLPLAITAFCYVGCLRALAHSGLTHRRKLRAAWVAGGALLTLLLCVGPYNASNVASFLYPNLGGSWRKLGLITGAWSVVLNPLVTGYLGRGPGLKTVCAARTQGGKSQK
Briefly: Measurement of GPR40 agonistic activity (intracellular calcium, FLIPR, CHO cell line expressing human GPR40). It is filed as cell-based. Particulars: change in fluorescence intensity one minute after measurement. The source says:
Test Method 1: Measurement of GPR40 Agonistic Activity i) Cloning of Human GPR40
In accordance with procedures as described below, the full-length sequence of GPR40 was obtained by a polymerase chain reaction (PCR) to set human genomic DNA (Clontech) as a template.
Oligonucleotide which consists of a base sequence represented by SEQ ID NO. 1 was used as a forward primer, and oligonucleotide which consists of a base sequence represented by SEQ ID NO. 2 was used as a reverse primer. To each 5′ terminus of the forward primer and the reverse primer described above, a base sequence including the XbaI recognition site is attached. In the PCR, using Taq DNA polymerase (Ex Taq DNA polymerase; TAKARA BIO INC.), a cycle consisting of 94° C. (15 sec)/55° C. (30 sec)/72° C. (1 min) was repeated 30 times in the presence of 5% DMSO. As a result, the DNA fragment of about 0.9 kbp was amplified. This DNA fragment was digested with XbaI, followed by inserting into the XbaI site of plasmid pEF-BOS-dhfr (Nucleic Acids Research, 18, 5322, 1990) to obtain plasmid pEF-BOS-dhfr-GPR40.
The base sequence of GPR40 gene in plasmid pEF-BOS-dhfr-GPR40 was decided by a dideoxy terminator method using a DNA sequencer (ABI377 DNA Sequencer; Applied Biosystems). The base sequence of GPR40 gene was the same with the base sequence represented by SEQ ID NO. 3. The base sequence represented by SEQ ID NO. […] 4 […]
ii) Preparation of GPR40 Stable Expression Cell
A CHO dhfr cell (CHO cell deleting a dihydrofolate reductase (dhfr) gene) was used as a cell in which GPR 40 protein was expressed. In addition, the plasmid pEF-BOS-dhfr-GPR40 obtained in the above i) was used as an expressing plasmid to express GPR40 protein. To a 6 well plate (Asahi Techno Glass Corp.), the CHO dhfr cells were seeded to become 80 to 90% confluent in an aMEM medium having 10% fetal calf serum (FCS), and cultivated overnight. Then, 2 μg of plasmid pEF-BOS-dhfr-GPR40 per well was transferred generetically thereto using a transfection reagent (Lipofectamine 2000; Invitrogen Corporation). After cultivating for 24 hours subsequent to the gene transfer, the cell were diluted and reseeded. On this occasion, the αMEM medium having 10% FCS was changed for an αMEM medium having 10% FCS and no nucleic acid. After 20 days cultivation, formed cell colonies were collected respectively and cultivated, thereby obtaining CHO cells stably expressing GPR40. Among these, cells high-reactive to an oleic acid and a linoleic acid which were intrinsic ligands were selected. […]
iii) Measurement of GPR40 Agonistic Activity
The GPR40 agonistic activity was measured with fluctuation of the intracellular calcium concentration as an index by FLIPR (registered trademark, Molecular Devices Corporation). Hereinafter, test methods will be described.
A CHO cell line expressing human GPR40 was seeded with 6×10^3 per well to a 384-well black plate (Becton, Dickinson and Company), and cultivated in a CO2 incubator overnight. For a luminescent pigment, a Calcium-3 assay kit (Molecular Devices Corporation) was used, and dissolved in 10 ml of a HBSS-HEPES buffer (PH7.4, 1×HBSS, 20 mM HEPES, Invitrogen Corporation) for a bottle. 35.68 mg of probenecid (Sigma) was dissolved in 250 μl of 1M NaOH, and then 250 μl of a HBSS-HEPES buffer was added to blend. 16 ml of a HBSS-HEPES buffer, 640 μl of the luminescent pigment and 32 μl of probenecid were added to blend for a solution of the luminescent pigment per plate. The medium of the plate was removed, 40 μl of the solution of the luminescent pigment per well was dispensed, followed by incubating at room temperature for 2 hours. A compound to be inspected was dissolved in DMSO, and diluted with a HBSS-HEPES buffer. A reaction was initiated by 10 μl of dispensation, the fluctuation of the intracellular calcium concentration was measured by FLIPR. An EC50 value of the compound to be inspected was calculated from the dose-response curve of change in fluorescence intensity one minute after measurement.

For the compound `Cc1cc(OCC[C@@H](O)CO)cc(C)c1-c1cccc(CNc2ccc(Cn3oc(=O)[n-]c3=O)cc2)c1C.[Na+]` [Example 101], in the test on normal mice, the inhibition in vivo at 10 mg/kg came to 39% and the minimal effective dose is 3 mg/kg. Moreover, at human GPR40, the concentration for a half-maximal effect (EC50) turned out to be 0.23 µM.
As for `Cc1cc(OCC[C@H](O)CO)cc(C)c1-c1cccc(CNc2ccc(Cn3oc(=O)[n-]c3=O)cc2)c1C.[Na+]` [Example 102], in the test with normal mice, the inhibition in vivo at 10 mg/kg was 48% and the minimal effective dose was determined as 10 mg/kg. Besides, the half-maximal effective concentration (EC50) at human GPR40 amounted to 0.23 µM.
Taken in the same sequence, the figures for `CCC(=O)NCCCOc1cc(C)c(-c2cccc(COc3ccc(Cn4oc(=O)[n-]c4=O)cc3)c2C)c(C)c1.[Na+]` [Example 119] were 26%, 3 mg/kg and 0.81 µM.

The values are drawn from patent US20100267775A1, “OXADIAZOLIDINEDIONE COMPOUND” (priority 2007, published 2010).
